Earlier results in PMC3090270 (Structure (London, England : 1993), 2010).

Tests used:
[1] = system: cardiac myocytes; settings: H2O2 treatment, ref Brennan et al., 2006
[2] = system: RI subunits; settings: ref Huang et al., 1997b (D-AKAP1), 1997a (D-AKAP2), Reinton et al., 2000 (AKAP220), Gronholm et al., 2003 (Merlin), Li et al., 2001 (Pap7)

| Compound | disulfide formation in RIα D/D [1] | nuclear localization of PKA [1] | binding to RI subunits (dual-specific) [2] |
| --- | --- | --- | --- |
| OO [H2O2] | increased disulfide bond formation | nuclear localization of PKA | – |
| AKAP220: dual-specific AKAP | – | – | bind RI subunits |
